{"source": "ChEMBL document CHEMBL5543126", "about": "“Combinatorial Ubiquitination REal-time PROteolysis (CURE-PROs): A Modular Platform for Generating Reversible, Self-Assembling Bifunctional Targeted Degraders” (J Med Chem, 2024)", "type_in_all_cases": "cell-based", "key": {"[1]": {"molecular_target": "T1, von Hippel-Lindau disease tumor suppressor/Bromodomain-containing protein 4 (Homo sapiens, UniProt O60885+P40337)", "T1 sequence (P40337 whole entry, looked up, other chains not shown)": "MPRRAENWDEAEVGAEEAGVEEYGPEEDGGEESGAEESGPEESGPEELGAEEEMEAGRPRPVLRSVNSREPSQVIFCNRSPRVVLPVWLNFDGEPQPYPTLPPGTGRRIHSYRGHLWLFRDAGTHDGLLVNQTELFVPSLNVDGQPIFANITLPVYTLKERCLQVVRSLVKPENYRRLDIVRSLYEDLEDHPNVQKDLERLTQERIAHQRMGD", "assay": "(§1) PROTAC activity at BRD4/VHL in human MCF7 cells assessed as induction of BRD4 degradation by measuring residual activity at 300 nM incubated for 24 hrs in presence of 10 uM VHL based ligand (2S,4R)-1-((S)-2-(2,3-dihydroxybenzamido)-3,3-dimethylbutanoyl)-4-hydroxy-N-(4-(4-methylthiazol-5-yl)benzyl)pyrrolidine-2-carboxamide by Western blot based Combinatorial Ubiquitination Real-time PROteolysis analysis"}, "[2]": {"molecular_target": "T1, von Hippel-Lindau disease tumor suppressor/Bromodomain-containing protein 4", "assay": "as §1, with “VHL/BRD4” for “BRD4/VHL”, “degradation” for “degradation by measuring residual activity”, “10 uM” for “300 nM”, “of” for “of 10 uM”, “VHL ligand” for “VHL”, “based” for “based ligand”"}, "[3]": {"molecular_target": "T1, von Hippel-Lindau disease tumor suppressor/Bromodomain-containing protein 4", "assay": "as §1, with “VHL/BRD4” for “BRD4/VHL”, “HEK293” for “human MCF7”, “maximal level of degradation” for “residual activity”, “0.3 uM measured every 15 mins” for “300 nM incubated”, “of” for “of 10 uM”, “HiBiT” for “Western blot”"}, "[4]": {"molecular_target": "T1, von Hippel-Lindau disease tumor suppressor/Bromodomain-containing protein 4", "assay": "as §1, with “100” for “300”"}, "[5]": {"molecular_target": "T1, von Hippel-Lindau disease tumor suppressor/Bromodomain-containing protein 4", "assay": "as §1, with “100” for “300”, “3” for “10”"}, "[6]": {"molecular_target": "T1, von Hippel-Lindau disease tumor suppressor/Bromodomain-containing protein 4", "assay": "as §1, with “3 uM” for “300 nM”, “300 nM” for “10 uM”"}, "[7]": {"molecular_target": "T1, von Hippel-Lindau disease tumor suppressor/Bromodomain-containing protein 4", "assay": "as §1, with “3 uM” for “300 nM”, “1” for “10”"}, "[8]": {"molecular_target": "T1, von Hippel-Lindau disease tumor suppressor/Bromodomain-containing protein 4", "assay": "as §1, with “3 uM” for “300 nM”, “3” for “10”"}, "[9]": {"molecular_target": "T1, von Hippel-Lindau disease tumor suppressor/Bromodomain-containing protein 4", "assay": "as §1, with “VHL/BRD4” for “BRD4/VHL”, “HEK293” for “human MCF7”, “Tmax” for “residual activity”, “3 uM measured every 15 mins” for “300 nM incubated”, “of” for “of 10 uM”, “HiBiT” for “Western blot”"}, "[10]": {"molecular_target": "T1, von Hippel-Lindau disease tumor suppressor/Bromodomain-containing protein 4", "assay": "as §1, with “100” for “300”, “300 nM” for “10 uM”"}, "[11]": {"molecular_target": "T1, von Hippel-Lindau disease tumor suppressor/Bromodomain-containing protein 4", "assay": "PROTAC activity at VHL/BRD4 in human MCF7 cells assessed as induction of BRD4 degradation at 10 uM measured at 4 hrs in presence of BRD4 based ligand ((4S)-6-(4-chlorophenyl)-4-(2-(ethylamino)-2-oxoethyl)-1-methyl4Hbenzo[f][1,2,4]triazolo [4,3-a][1,4]diazepin-8-yl)boronic acid by Western blot based Combinatorial Ubiquitination Real-time PROteolysis analysis"}, "[12]": {"molecular_target": "T1, von Hippel-Lindau disease tumor suppressor/Bromodomain-containing protein 4", "assay": "(§2) PROTAC activity at BRD4/VHL in human MCF7 cells assessed as induction of BRD4 degradation by measuring residual activity at 100 nM incubated for 24 hrs in presence of 1 uM BRD4 based ligand ((4S)-6-(4-chlorophenyl)-4-(2-(ethylamino)-2-oxoethyl)-1-methyl4Hbenzo[f][1,2,4]triazolo [4,3-a][1,4]diazepin-8-yl)boronic acid by Western blot based Combinatorial Ubiquitination Real-time PROteolysis analysis"}, "[13]": {"molecular_target": "T1, von Hippel-Lindau disease tumor suppressor/Bromodomain-containing protein 4", "assay": "as §2, with “at 3 uM” for “at 100 nM”, “of 3” for “of 1”"}, "[14]": {"molecular_target": "T1, von Hippel-Lindau disease tumor suppressor/Bromodomain-containing protein 4", "assay": "as §2, with “of” for “of 1 uM”"}, "[15]": {"molecular_target": "T1, von Hippel-Lindau disease tumor suppressor/Bromodomain-containing protein 4", "assay": "as §2, with “300” for “100”, “100 nM” for “1 uM”"}, "[16]": {"molecular_target": "T1, von Hippel-Lindau disease tumor suppressor/Bromodomain-containing protein 4", "assay": "PROTAC activity at VHL/BRD4 in human MCF7 cells assessed as induction of BRD4 degradation at 10 uM incubated for 24 hrs in presence of BRD4 ligand based ((4S)-6-(4-chlorophenyl)-4-(2-(ethylamino)-2-oxoethyl)-1-methyl4Hbenzo[f][1,2,4]triazolo [4,3-a][1,4]diazepin-8-yl)boronic acid by Western blot based Combinatorial Ubiquitination Real-time PROteolysis analysis"}, "[17]": {"molecular_target": "T1, von Hippel-Lindau disease tumor suppressor/Bromodomain-containing protein 4", "assay": "as §2, with “1 uM” for “100 nM”"}, "[18]": {"molecular_target": "T1, von Hippel-Lindau disease tumor suppressor/Bromodomain-containing protein 4", "assay": "(§3) PROTAC activity at VHL/BRD4 in HEK293 cells assessed as induction of BRD4 degradation by measuring Tmax at 1 uM measured every 15 mins for 24 hrs in presence of BRD4 based ligand ((4S)-6-(4-chlorophenyl)-4-(2-(ethylamino)-2-oxoethyl)-1-methyl4Hbenzo[f][1,2,4]triazolo [4,3-a][1,4]diazepin-8-yl)boronic acid by HiBiT based Combinatorial Ubiquitination Real-time PROteolysis analysis"}, "[19]": {"molecular_target": "T1, von Hippel-Lindau disease tumor suppressor/Bromodomain-containing protein 4", "assay": "as §3, with “maximal level of degradation” for “Tmax”"}, "[20]": {"molecular_target": "T1, von Hippel-Lindau disease tumor suppressor/Bromodomain-containing protein 4", "assay": "as §2, with “3 uM” for “100 nM”, “of” for “of 1 uM”"}, "[21]": {"molecular_target": "T1, von Hippel-Lindau disease tumor suppressor/Bromodomain-containing protein 4", "assay": "as §2, with “3 uM” for “100 nM”, “100 nM” for “1 uM”"}, "[22]": {"molecular_target": "T1, von Hippel-Lindau disease tumor suppressor/Bromodomain-containing protein 4", "assay": "as §2, with “100 nM” for “1 uM”"}, "[23]": {"molecular_target": "T1, von Hippel-Lindau disease tumor suppressor/Bromodomain-containing protein 4", "assay": "as §2, with “at 300” for “at 100”, “of 3” for “of 1”"}}, "note": "Activity calls are given as the source filed them. No cut-off for these calls is given here.", "data": [{"compound": "CCNC(=O)C[C@@H]1N=C(c2ccc(Cl)cc2)c2cc(B(O)O)ccc2-n2c(C)nnc21", "values": [{"measurement": "Activity", "setting": "[1]", "result": 40, "unit": "%"}, {"measurement": "Activity", "setting": "[2]", "result": "Active"}, {"measurement": "Emax", "setting": "[3]", "result": 47, "unit": "%"}, {"measurement": "Activity", "setting": "[4]", "result": 87, "unit": "%"}, {"measurement": "Activity", "setting": "[5]", "result": 74, "unit": "%"}, {"measurement": "Activity", "setting": "[6]", "result": 39, "unit": "%"}, {"measurement": "Activity", "setting": "[7]", "result": 32, "unit": "%"}, {"measurement": "Activity", "setting": "[8]", "result": 16, "unit": "%"}, {"measurement": "Tmax", "setting": "[9]", "result": 18, "unit": "h"}, {"measurement": "Activity", "setting": "[10]", "result": 77, "unit": "%"}]}, {"compound": "Cc1ncsc1-c1ccc(CNC(=O)[C@@H]2C[C@@H](O)CN2C(=O)[C@@H](NC(=O)c2cccc(O)c2O)C(C)(C)C)cc1", "values": [{"measurement": "Activity", "setting": "[11]", "result": 100, "unit": "%"}, {"measurement": "Activity", "setting": "[12]", "result": 101, "unit": "%"}, {"measurement": "Activity", "setting": "[13]", "result": 16, "unit": "%"}, {"measurement": "Activity", "setting": "[14]", "result": 89, "unit": "%"}, {"measurement": "Activity", "setting": "[15]", "result": 72, "unit": "%"}, {"measurement": "Activity", "setting": "[16]", "result": "Active"}, {"measurement": "Activity", "setting": "[17]", "result": 35, "unit": "%"}, {"measurement": "Tmax", "setting": "[18]", "result": 19.5, "unit": "h"}, {"measurement": "Emax", "setting": "[19]", "result": 80, "unit": "%"}, {"measurement": "Activity", "setting": "[20]", "result": 73, "unit": "%"}, {"measurement": "Activity", "setting": "[21]", "result": 51, "unit": "%"}, {"measurement": "Activity", "setting": "[22]", "result": 97, "unit": "%"}, {"measurement": "Activity", "setting": "[23]", "result": 37, "unit": "%"}]}]}
